Assays:
[1] = test system: SMN2 mRNA in GM03813 SMA patient cells; assay: Endogenous SMN2 mRNA end-point semi-quantitative RT-PCR splicing assay in cultured cells; assay type: cell-based, human; details: Type 1 SMA patient fibroblasts, increasing concentrations, 24 hr, end-point RT-PCR (FIG. 5)
Method: The endpoint reverse transcription-PCR splicing assay is used to visualize and quantify the levels of the full length and Δ7 SMN2 mRNA in primary cells and cell lines containing the SMN2 gene treated with a test compound.
Protocol. GM03813 SMA patient cells (5,000 cells/well) are seeded in 200 μL of cell culture medium (DMEM plus 10% FBS) in 96-well flat-bottom plates and the plate is immediately swirled to ensure proper dispersal of cells, forming an even monolayer of cells. Cells are allowed to attach for at least 4-6 hrs. Test compounds are serially diluted 3.16-fold in 100% DMSO to generate a 7-point concentration curve. A solution of test compound (1 μL, 200× in DMSO) is added to each test well and 1 μL DMSO is added to each control well. The plate is incubated for 24 hrs in a cell culture incubator (37° C., 5% CO2, 100% relative humidity). The cells are then lysed in Cells-To-Ct lysis buffer and the lysate is stored at −80° C.
SMN FL and Δ7 mRNA are identified using the following primers in Table 6. These primers hybridize to a nucleotide sequence in exon 6 (SMN Forward C, SEQ ID NO. 11) (nucleotide 43 to nucleotide 63) and exon 8 (SMN Reverse C, SEQ ID NO. 12) (nucleotide 51 to nucleotide 73) common to human SMN1 and SMN2 mRNA. Since the SMA patient cells used in Example 4 contain only the SMN2 gene, RT-PCR can visualize and quantify only SMN2 full-length and SMN2 Δ7 mRNA.
(§1) To synthesize cDNA, 5 μL of lysate, 4 μL of 5× iScript reaction mix, 1 μL of reverse transcriptase, and 10 μL of water are combined and incubated 5 min at 25° C. followed by 30 min at 42° C., followed by 5 min at 85° C. The cDNA solution is stored at −20° C.
(§2) To perform endpoint PCR, 5 μL of cDNA, 0.2 μL of 100 μM forward primer, 0.2 μL of 100 μM reverse primer, and 22.5 μL of polymerase super mix are combined in a 96 well semiskirted PCR plate. PCR is carried out at the following temperatures for the indicated time: Step 1: 94° C. (2 min), Step 2: 94° C. (30 sec), Step 3: 55° C. (30 sec), Step 4: 68° C. (1 min), then repeat Steps 2 to 4 for a total of 33 cycles, then hold at 4° C.
10 μL of each PCR sample is electrophoretically separated on a 2% agarose E-gel for 14 minutes stained with double-stranded DNA (dsDNA) staining reagents (e.g., ethidium bromide) and visualized using a gel imager.

[2] = test system: human SMN1 minigene mRNA (SMN1-A minigene) in HEK293H cells; assay: Human SMN1 minigene mRNA end-point semi-quantitative RT-PCR splicing assay in cultured cells; assay type: cell-based; details: HEK293H cells transfected with SMN1-A minigene, increasing concentrations, 7 hours, end-point RT-PCR (FIG. 17)
Excerpt: The RT-PCR assay is used to visualize and quantify the levels of the human SMN1 minigene full length and Δ7 mRNA in primary cells and cell lines expressing the human SMN1 minigene construct treated with a test compound.
Using the procedure for the preparation of the SMN2 minigene construct described in Biological Example 1, the SMN1 version of the minigene is generated by replacing the sixth nucleotide of exon 7 (a thymine residue) of the SMN2-A minigene construct to cytosine using site-directed mutagenesis. Thus, similar to the SMN2-A minigene construct, the SMN1 minigene construct has a single adenine residue inserted after nucleic residue 48 of exon 7. The SMN1 minigene construct is referred to as SMN1-A.
Protocol. HEK293H cells (10,000 cells/well/199 μL) were transfected, using FuGENE-6 reagent, in a 96-well plate with 15 ng of the SMN1-A minigene reporter plasmid per well. Cells were incubated for 24 hours following transfection. Test compounds were serially diluted 3.16-fold in 100% DMSO to generate a 7-point concentration curve. A solution of test compound (1 μL, 200× in DMSO) was added to each test well. 1 μL DMSO was added to each control well. The plate was incubated for 7 hours in a cell culture incubator (37° C., 5% CO2, 100% relative humidity). The cells were then lysed in Cells-To-Ct lysis buffer and the lysates were stored at −80° C.
Two SMN spliced mRNA are generated from the SMN1 minigene. The term “SMN1 minigene FL” refers to the first spliced product containing exon 7, corresponding to full length SMN1 mRNA. The term “SMN1 minigene Δ7” refers to the second product lacking exon 7.
SMN minigene FL and Δ7 mRNA are amplified using the primers in Table 11. Primer SMN Forward C (SEQ ID NO. 11) hybridizes to a nucleotide sequence in exon 6 (nucleotide 43 to nucleotide 63), primer SMN Reverse A (SEQ ID NO. 2) hybridizes to a nucleotide sequence in the coding sequence of Firefly luciferase. The combination of these two oligonucleotides detects only SMN1 or SMN2 minigenes (RT-PCR) and will not detect endogenous SMN1 or SMN2 genes. Since the HEK293H cells used in Example 16 were transfected with only the human SMN1 minigene, RT-PCR can visualize and quantify only SMN1 minigene full-length and SMN1 minigene Δ7 mRNA.
as §1
as §2, with “(30 sec), Step 3: 55° C. (30 sec), Step 4: 68° C. (1 min), then repeat Steps 2 to 4 for a total of 33 cycles, then hold at 4° C.” left out

For `COc1ccc(-c2cc(=O)n3cc(N4CCNCC4)ccc3n2)cc1OC` [Cpd 6, 2-(3,4-dimethoxyphenyl)-7-(piperazin-1-yl)-4H-pyrido[1,2-a]pyrimidin-4-one], the “SMN2 FL mRNA” value [1] was “progressively more SMN2 FL mRNA”, the “SMN2 Δ7 mRNA” value [1] was “less SMN2 Δ7 mRNA” and the “SMN1 minigene FL mRNA” value [2] was “progressively more SMN1 minigene FL mRNA”. The “SMN1 minigene Δ7 mRNA” value [2] was “less SMN1 minigene Δ7 mRNA”.
`Cc1cn2nc(-c3cc(=O)n4cc(N5CCN(C)CC5)ccc4n3)cc2c(C)n1` [Cpd 170, 2-(4,6-dimethylpyrazolo[1,5-a]pyrazin-2-yl)-7-(4-methylpiperazin-1-yl)-4H-pyrido[1,2-a]pyrimidin-4-one] was tested, and the “SMN2 FL mRNA” value [1] was “progressively more SMN2 FL mRNA”, the “SMN2 Δ7 mRNA” value [1] was “less SMN2 Δ7 mRNA” and the “SMN1 minigene FL mRNA” value [2] was “progressively more SMN1 minigene FL mRNA”. For the same compound, the “SMN1 minigene Δ7 mRNA” value [2] was “less SMN1 minigene Δ7 mRNA”.
